# From patent US12331035B2, “Bicyclic compound and use thereof” (SK BIOPHARMACEUTICALS CO., LTD., priority 2019, dated 2025)
# pIC50: −log10 of the molar value.
# Molecular target: T1, PRMT5-MEP50 enzyme complex (Homo sapiens, UniProt O14744)
# T1 construct: purchased BPS Bioscience (USA) 51045
# Experiment: In vitro PRMT5 enzyme activity assay (methylation of histone H4 arginine H4R3, ELISA absorbance at 450 nm)
# Assay type: biochemical
# Conditions: S-adenosylmethionine, histone H4 peptide, 2 hours at room temperature, 8 points 10 μM to 0.128 nM
# Method in brief: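 Human PRMT5-MEP50 (5 μg/mL working stock) with 2 μM SAM stock on histone H4 (1-20) peptide-coated plates, compound 8-point 1:5 series from 10 μM, 2 h at room temperature. H4R3 methylation detected by antibody/HRP ELISA, absorbance 450 nm; IC50 calculated.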
# T1 sequence (O14744 2-637 limits assumed): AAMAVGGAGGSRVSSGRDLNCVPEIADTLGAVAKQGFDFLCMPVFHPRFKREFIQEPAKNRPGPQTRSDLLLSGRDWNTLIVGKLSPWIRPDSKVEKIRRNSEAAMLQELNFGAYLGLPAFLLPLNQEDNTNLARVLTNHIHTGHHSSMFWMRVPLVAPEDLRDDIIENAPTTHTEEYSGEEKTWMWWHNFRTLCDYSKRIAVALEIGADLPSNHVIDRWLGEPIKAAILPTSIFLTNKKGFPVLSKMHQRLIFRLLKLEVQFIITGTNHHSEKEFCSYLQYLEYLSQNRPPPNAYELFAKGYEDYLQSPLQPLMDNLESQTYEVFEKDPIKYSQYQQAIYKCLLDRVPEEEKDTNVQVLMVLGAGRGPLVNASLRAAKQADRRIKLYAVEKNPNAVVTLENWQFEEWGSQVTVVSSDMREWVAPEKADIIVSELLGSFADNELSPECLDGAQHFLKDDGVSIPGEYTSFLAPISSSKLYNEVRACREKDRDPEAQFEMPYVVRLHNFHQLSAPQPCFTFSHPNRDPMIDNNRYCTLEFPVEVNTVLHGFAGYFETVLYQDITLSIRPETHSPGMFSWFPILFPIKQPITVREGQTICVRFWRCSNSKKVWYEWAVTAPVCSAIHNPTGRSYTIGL
# T1 sequence (Q9BQA1 2-342 partner limits assumed): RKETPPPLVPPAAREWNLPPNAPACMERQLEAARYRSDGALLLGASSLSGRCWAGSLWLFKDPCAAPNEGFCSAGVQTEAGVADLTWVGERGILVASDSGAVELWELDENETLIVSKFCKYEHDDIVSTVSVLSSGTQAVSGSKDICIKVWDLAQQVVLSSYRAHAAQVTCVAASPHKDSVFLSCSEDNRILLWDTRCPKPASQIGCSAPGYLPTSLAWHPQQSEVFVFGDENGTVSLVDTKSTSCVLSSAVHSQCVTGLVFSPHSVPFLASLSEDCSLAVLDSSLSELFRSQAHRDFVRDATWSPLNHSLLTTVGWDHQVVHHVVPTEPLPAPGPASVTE
row,Compound,pIC50
1,"CC(=O)N1CCC(COc2ccc3c(c2)CCN(C[C@H](O)CN2CCc4ccccc4C2)C3=O)CC1 [Example 83, 6-[(1-acetyl-4-piperidyl)methoxy]-2-[(2R)-3-(3,4-dihydro-1H-isoquinolin-2-yl)-2-hydroxy-propyl]-3,4-dihydroisoquinolin-1-one]",6.00 to 7.00
2,"CN1CCN(c2ccc3c(c2)CCN(C[C@H](O)CN2CCc4ccccc4C2)C3=O)CCC1=O [Example 84, 2-[(2R)-3-(3,4-dihydro-1H-isoquinolin-2-yl)-2-hydroxy-propyl]-6-(4-methyl-5-oxo-1,4-diazepan-1-yl)-3,4-dihydroisoquinolin-1-one]",6.00 to 7.00
3,"CC(C)N1CCN(c2ccc3c(c2)CCN(C[C@H](O)CN2CCc4ccccc4C2)C3=O)CC1=O [Example 85, 2-[(2R)-3-(3,4-dihydro-1H-isoquinolin-2-yl)-2-hydroxy-propyl]-6-(4-isopropyl-3-oxo-piperazin-1-yl)-3,4-dihydroisoquinolin-1-one]",6.00 to 7.00
4,"CC(=O)N1CCN(c2ccc3c(c2)CCN(C[C@H](O)CN2CCc4ccccc4C2)C3=O)C(=O)C1 [Example 86, 6-(4-acetyl-2-oxo-piperazin-1-yl)-2-[(2R)-3-(3,4-dihydro-1H-isoquinolin-2-yl)-2-hydroxy-propyl]-3,4-dihydroisoquinolin-1-one]",6.00 to 7.00
5,"CC(=O)N1CCN(c2ccc3c(n2)CCN(C[C@H](O)CN2CCc4ccccc4C2)C3=O)CC1 [Example 88, 2-(4-acetylpiperazin-1-yl)-6-[(2R)-3-(3,4-dihydro-1H-isoquinolin-2-yl)-2-hydroxy-propyl]-7,8-dihydro-1,6-naphthyridin-5-one]",7.00 to 9.00
6,"O=C1c2ccc(N3CCOCC3)nc2CCN1C[C@H](O)CN1CCc2ccccc2C1 [Example 89, 6-[(2R)-3-(3,4-dihydro-1H-isoquinolin-2-yl)-2-hydroxy-propyl]-2-morpholino-7,8-dihydro-1,6-naphthyridin-5-one]",7.00 to 9.00
7,"CC(=O)N(C)C1CCN(c2ccc3c(c2)CCN(C[C@H](O)CN2CCc4ccccc4C2)C3=O)CC1 [Example 90, N-[1-[2-[(2R)-3-(3,4-dihydro-1H-isoquinolin-2-yl)-2-hydroxy-propyl]-1-oxo-3,4-dihydroisoquinolin-6-yl]-4-piperidyl]-N-methyl-acetamide]",7.00 to 9.00
8,"O=C1c2ccc(OC3CCOCC3)cc2CCN1C[C@H](O)CN1CCc2ccccc2C1 [Example 91, 2-[(2R)-3-(3,4-dihydro-1H-isoquinolin-2-yl)-2-hydroxy-propyl]-6-tetrahydropyran-4-yloxy-3,4-dihydroisoquinolin-1-one]",7.00 to 9.00
9,"CC(=O)NC1CCN(c2ccc3c(c2)CCN(C[C@H](O)CN2CCc4ccccc4C2)C3=O)CC1 [Example 92, N-[1-[2-[(2R)-3-(3,4-dihydro-1H-isoquinolin-2-yl)-2-hydroxy-propyl]-1-oxo-3,4-dihydroisoquinolin-6-yl]-4-piperidyl]acetamide]",6.00 to 7.00
10,"CC(=O)N1CCCC(Nc2ccc3c(c2)CCN(C[C@H](O)CN2CCc4ccccc4C2)C3=O)C1 (stereo partly drawn) [Example 93, 6-[(1-acetyl-3-piperidyl)amino]-2-[(2R)-3-(3,4-dihydro-1H-isoquinolin-2-yl)-2-hydroxy-propyl]-3,4-dihydroisoquinolin-1-one]",7.00 to 9.00
11,"O=C1c2ccc(N3CCN4C(=O)OCC4C3)cc2CCN1C[C@H](O)CN1CCc2ccccc2C1 (stereo partly drawn) [Example 94, 7-[2-[(2R)-3-(3,4-dihydro-1H-isoquinolin-2-yl)-2-hydroxy-propyl]-1-oxo-3,4-dihydroisoquinolin-6-yl]-5,6,8,8a-tetrahydro-1H-oxazolo[3,4-a]pyrazin-3-one]",7.00 to 9.00
12,"CC(=O)N1CCC(Oc2ccc3c(c2)CCN(C[C@H](O)CN2CCc4ccccc4C2)C3=O)CC1 [Example 95, 6-[(1-acetyl-4-piperidyl)oxy]-2-[(2R)-3-(3,4-dihydro-1H-isoquinolin-2-yl)-2-hydroxy-propyl]-3,4-dihydroisoquinolin-1-one]",6.00 to 7.00
13,"CC(=O)N1CC(Oc2ccc3c(c2)CCN(C[C@H](O)CN2CCc4ccccc4C2)C3=O)C1 [Example 96, 6-(1-acetylazetidin-3-yl)oxy-2-[(2R)-3-(3,4-dihydro-1H-isoquinolin-2-yl)-2-hydroxy-propyl]-3,4-dihydroisoquinolin-1-one]",6.00 to 7.00
14,"CN(C)C(=O)C1CCN(c2ccc3c(c2)CCN(C[C@H](O)CN2CCc4ccccc4C2)C3=O)CC1 [Example 97, 1-[2-[(2R)-3-(3,4-dihydro-1H-isoquinolin-2-yl)-2-hydroxy-propyl]-1-oxo-3,4-dihydroisoquinolin-6-yl]-N,N-dimethyl-piperidine-4-carboxamide]",6.00 to 7.00
15,"CC(=O)N1CCCC(Nc2ccc3c(c2)CCN(C[C@H](O)CN2CCc4ccccc4C2)C3=O)CC1 (stereo partly drawn) [Example 98, 6-[(1-acetylazepan-4-yl)amino]-2-[(2R)-3-(3,4-dihydro-1H-isoquinolin-2-yl)-2-hydroxy-propyl]-3,4-dihydroisoquinolin-1-one]",6.00 to 7.00
16,"CC(=O)N1CCC(Nc2ccc3c(c2)CCN(C[C@H](O)CN2CCc4ccccc4C2)C3=O)C1 (stereo partly drawn) [Example 99, 6-[(1-acetylpyrrolidin-3-yl)amino]-2-[(2R)-3-(3,4-dihydro-1H-isoquinolin-2-yl)-2-hydroxy-propyl]-3,4-dihydroisoquinolin-1-one]",6.00 to 7.00
17,"N#CN1CCN(c2ccc3c(c2)CCN(C[C@H](O)CN2CCc4ccccc4C2)C3=O)CC1 [Example 101, 4-[2-[(2R)-3-(3,4-dihydro-1H-isoquinolin-2-yl)-2-hydroxy-propyl]-1-oxo-3,4-dihydroisoquinolin-6-yl]piperazine-1-carbonitrile]",7.00 to 9.00
18,"O=C1c2ccc(N3CCn4ccnc4C3)cc2CCN1C[C@H](O)CN1CCc2ccccc2C1 [Example 102, 6-(6,8-dihydro-5H-imidazo[1,2-a]pyrazin-7-yl)-2-[(2R)-3-(3,4-dihydro-1H-isoquinoline-2-yl)-2-hydroxy-propyl]-3,4-dihydroisoquinolin-1-one]",7.00 to 9.00
19,"CC1CN(c2ccc3c(c2)CCN(C[C@H](O)CN2CCc4ccccc4C2)C3=O)CC(=O)N1C (stereo partly drawn) [Example 103, 2-[(2R)-3-(3,4-dihydro-1H-isoquinolin-2-yl)-2-hydroxy-propyl]-6-(3,4-dimethyl-5-oxo-piperazin-1-yl)-3,4-dihydroisoquinolin-1-one]",7.00 to 9.00
20,"CC(=O)N1CCN(c2ccc3c(c2)C(C)(C)CN(C[C@H](O)CN2CCc4ccccc4C2)C3=O)CC1 [Example 104, 6-(4-acetylpiperazin-1-yl)-2-[(2R)-3-(3,4-dihydro-1H-isoquinolin-2-yl)-2-hydroxy-propyl]-4,4-dimethyl-3H-isoquinolin-1-one]",7.00 to 9.00
21,"CC(=O)N1CCN(c2ccc3c(c2)C2(CC2)CN(C[C@H](O)CN2CCc4ccccc4C2)C3=O)CC1 [Example 105, 6-(4-acetylpiperazin-1-yl)-2-[(2R)-3-(3,4-dihydro-1H-isoquinolin-2-yl)-2-hydroxy-propyl]spiro[3H-isoquinoline-4,1′-cyclopropane]-1-one]",7.00 to 9.00
22,"O=C1c2ccc(N3CCC(N4CCCC4)CC3)cc2CCN1C[C@H](O)CN1CCc2ccccc2C1 [Example 106, 2-[(2R)-3-(3,4-dihydro-1H-isoquinolin-2-yl)-2-hydroxy-propyl]-6-(4-pyrrolidin-1-yl-1-piperidyl)-3,4-dihydroisoquinolin-1-one]",7.00 to 9.00
23,"O=C1c2ccc(N3CCC(N4CCCCC4)CC3)cc2CCN1C[C@H](O)CN1CCc2ccccc2C1 [Example 107, 2-[(2R)-3-(3,4-dihydro-1H-isoquinolin-2-yl)-2-hydroxy-propyl]-6-[4-(1-piperidyl)-1-piperidyl]-3,4-dihydroisoquinolin-1-one]",6.00 to 7.00
24,"O=C1c2ccc(N3CCC(N4CCOCC4)CC3)cc2CCN1C[C@H](O)CN1CCc2ccccc2C1 [Example 108, 2-[(2R)-3-(3,4-dihydro-1H-isoquinolin-2-yl)-2-hydroxy-propyl]-6-(4-morpholino-1-piperidyl)-3,4-dihydroisoquinolin-1-one]",6.00 to 7.00
25,"COCCN1CCN(c2ccc3c(c2)CCN(C[C@H](O)CN2CCc4ccccc4C2)C3=O)CC1 [Example 109, 2-[(2R)-3-(3,4-dihydro-1H-isoquinolin-2-yl)-2-hydroxy-propyl]-6-[4-(2-methoxyethyl)piperazin-1-yl]-3,4-dihydroisoquinolin-1-one]",6.00 to 7.00
26,"CN(C)C1CCN(c2ccc3c(c2)CCN(C[C@H](O)CN2CCc4ccccc4C2)C3=O)CC1 [Example 110, 2-[(2R)-3-(3,4-dihydro-1H-isoquinolin-2-yl)-2-hydroxy-propyl]-6-[4-(dimethylamino)-1-piperidyl]-3,4-dihydroisoquinolin-1-one]",6.00 to 7.00
27,"CN(C)C1CCN(c2ccc3c(c2)C(C)(C)CN(C[C@H](O)CN2CCc4ccccc4C2)C3=O)CC1 [Example 111, 2-[(2R)-3-(3,4-dihydro-1H-isoquinolin-2-yl)-2-hydroxy-propyl]-6-[4-(dimethylamino)-1-piperidyl]-4,4-dimethyl-3H-isoquinolin-1-one]",6.00 to 7.00
28,"CC1(C)CN(C[C@H](O)CN2CCc3ccccc3C2)C(=O)c2ccc(N3CCOCC3)cc21 [Example 112, 2-[(2R)-3-(3,4-dihydro-1H-isoquinolin-2-yl)-2-hydroxy-propyl]-4,4-dimethyl-6-morpholino-3H-isoquinolin-1-one]",6.00 to 7.00
29,"O=C1c2ccc(OCCN3CCOCC3)cc2CCN1C[C@H](O)CN1CCc2ccccc2C1 [Example 113, 2-[(2R)-3-(3,4-dihydro-1H-isoquinolin-2-yl)-2-hydroxy-propyl]-6-(2-morpholinoethoxy)-3,4-dihydroisoquinolin-1-one]",7.00 to 9.00
30,"CCN1CCC(Oc2ccc3c(c2)CCN(C[C@H](O)CN2CCc4ccccc4C2)C3=O)CC1 [Example 114, 2-[(2R)-3-(3,4-dihydro-1H-isoquinolin-2-yl)-2-hydroxy-propyl]-6-[(1-ethyl-4-piperidyl)oxy]-3,4-dihydroisoquinolin-1-one]",6.00 to 7.00
